In patent US5506217A, “Phosphonates as anti-cancer agents” (The University of British Columbia, priority 1994, dated 1996):

How the values were obtained:
P388 tumor cells = experiment: colonogenic cell survival assay; format: cell-based; conditions: Mus musculus, 120 h, P388, read-out: Colonies formed after 5 days (% of control)
Description: (§1) Inhibition of colony formation in soft agar medium (colonogenic cell survival assay) is a more rigorous and direct measurement of cell kill or growth inhibition, and reflects the anti-cancer activity of the test compound. Briefly, tumor cells were cultured in petri dishes in methylcellulose, with or without a phosphonate test compound, and the number of colonies formed during a 5-day incubation period were counted.
The efficacy of 4-hexadecylthio-3-methoxybutane phosphonocholine on the growth of a mouse […] tumor was evaluated. The P388 cell line was cultured in a soft agar in the presence and absence of various concentrations of thioalkylphosphonate for 5 days, the number of tumor colonies formed during this period of time was registered.

L1210 tumor cells = experiment: colonogenic cell survival assay; format: cell-based; conditions: Mus musculus, 120 h, L1210, read-out: Colonies formed after 5 days (% of control)
Description: as §1
The effectiveness of S-thioalkylphosphonate on the growth of a lymphoma cell line was also investigated. L1210 is a mouse B-Cell tumor (lymphoma), was tested in soft agar for susceptibility to the cytotoxic action of thioalkylphosphonate.

WEHI-3B tumor cells [1] = experiment: colonogenic cell survival assay; format: cell-based; conditions: Mus musculus, WEHI3B, 120 h, WEHI-3B, read-out: Colonies formed after 5 days (% of control)
Description: as §1
Table 17 tabulates data obtained with two differrent phosphonate analogs using a colonogenic assay. Colonogenic assay is one of the most trusted tests for determination of effectiveness of an anti-cancer agent. The test is based on the formation of tumor colonies in vitro in a methyl cellulose or soft agar medium. The following results were obtained with the formation of colonies in methyl cellulose medium after five days in the presence or absence of four phosphonate analogs, two with a thioalkyl chain and two with an alkyloxy chain.

WEHI-3B tumor = WEHI-3B tumor growth in BALB/C mice; format: in vivo; conditions: for Tumor volume in cm^3: 500 μg (approx. 25 mg/Kg) daily IM
Description: After 3 days one group (n=5) of mice received 500 μg (approximately 25 mg/Kg body weight) of the phosphonate compound of the following formula daily by intramuscular (IM) injection. The size of the resulting tumor was measured using a caliper: [drawing 17]

WEHI-3B tumor cells [2] = experiment: 3H-thymidine incorporation assay; format: cell-based; conditions: Mus musculus, WEHI3B, read-out: Thymidine uptake (% of control)
Description: (§2) Experiments were performed using a number of different rumor cell lines. Tumor cells were cultured in RPMI-1640 medium supplemented with 10% fetal bovine serum, penicillin (50 units/mL), streptomycin (50 μg/mL) and mercaptoethanol (5 μg/mL) in an atmosphere of 5% CO2. The cells were passaged weekly by serial 1/10 to 1/10,000 dilutions. The cell viability and growth were constantly monitored by staining with trypan blue exclusion dye or the incorporation of tritiated thymidine.
(§3) Inhibition of ^3 H-thymidine incorporation into the DNA of cells by a test compound is an indirect measurement of cell kill or growth inhibition, and reflects the anti-cancer activity of the compound.
Tumor cells (2×104 ^4 cells/well) were placed in 200 μL of medium in 96-well plastic microtiter plates; a further 5 μL of medium either with or without phosphonate was added. […] The cells were then harvested using a Brandel cell harvester (model M-12) and collected on Whatman glass microfilters. The radioactivity associated with the filters was quantified in a liquid scintillation counter, and the amount of ^3 H-thymidine incorporated into tumor cells treated with the phosphonate compound was calculated as a percentage of the amount of ^3 H-thymidine incorporated into untreated tumor cells.
The biological activities of 4-hexadecylthio-3(S ) -3-methoxybutane-l-phosponocholine and its enantiomer 4-hexadecylthio-3(R)-3-methoxybutane-1-phosphonocholine were studied on several cancer cell lines. […] The cell viability, was determined as percent[^3 H]thymidine uptake into the cell DNA. The following results are mean of five samples ± S.D.

C-41 tumor cells = experiment: 3H-thymidine incorporation assay; format: cell-based; conditions: Homo sapiens, read-out: Thymidine uptake (% of control)
Description: as §2, §3
Tumor cells (2×104 ^4 cells/well) were placed in 200 μL of medium in 96-well plastic microtiter plates; a further 5 μL of medium either with or without phosphonate was added. After incubation for 24, 48 or 72 hours at 37° C. in a humidified atmosphere containing 5% CO2, the wells were pulsed with 0.1 μCi of ^3 H-thymidine for an additional 24 hours. The cells were then harvested using a Brandel cell harvester (model M-12) and collected on Whatman glass microfilters. The radioactivity associated with the filters was quantified in a liquid scintillation counter, and the amount of ^3 H-thymidine incorporated into tumor cells treated with the phosphonate compound was calculated as a percentage of the amount of ^3 H-thymidine incorporated into untreated tumor cells.
It has been discovered that a phosphonate compound of the following structure: [drawing 21] inhibits thymidine incorporation into DNA of a human cervical carcinoma (C-41 ) cell line. This effect is indicative of the anti-cancer activity of the above compound.

[3] = tested on: Lewis lung carcinoma cells; experiment: LLC tumor growth in BALB/C mice; format: in vivo; conditions: for Tumor volume (mm^3): 50 mg/day orally once a day from day 3
Description: BALB/C mice were injected with […] lung carcinoma cells under the skin at the back. Three days after injection of the rumor cells, treatment with the phosphonate shown above (compound VI) (50 mg/day orally once a day) was initiated in one group of mice, while a second group of mice received only the carrier, mucilage of tragacanth.

SMILES: CCCCCCCCCCCCCCCCOCC(CP(=O)([O-])OCC[N+](C)(C)C)OC (centres unmarked) [compound VII]
- activity at 1.25 µM (P388 tumor cells; 1.25 μM): 88 ± 6%
- activity at 2.5 µM (P388 tumor cells; 2.5 μM): 79 ± 8%
- activity at 5 µM (P388 tumor cells; 5 μM): 61 ± 7%
- activity at 10 µM (P388 tumor cells; 10 μM): 56 ± 7%
- activity at 20 µM (P388 tumor cells; 20 μM): 29 ± 4%
- activity at 40 µM (P388 tumor cells; 40 μM): 16 ± 2%
- activity at 1.25 µM (L1210 tumor cells; 1.25 μM): 91 ± 7%
- activity at 2.5 µM (L1210 tumor cells; 2.5 μM): 80 ± 11%
- activity at 5 µM (L1210 tumor cells; 5 μM): 55 ± 4%
- activity at 10 µM (L1210 tumor cells; 10 μM): 42 ± 5%
- activity at 20 µM (L1210 tumor cells; 20 μM): 22 ± 3%
- activity at 40 µM (L1210 tumor cells; 40 μM): 14 ± 5%
- activity at 1.25 µM (WEHI-3B tumor cells [1]; 1.25 μM): 88%
- activity at 2.5 µM (WEHI-3B tumor cells [1]; 2.5 μM): 60%
- activity at 5 µM (WEHI-3B tumor cells [1]; 5 μM): 48%
- activity at 10 µM (WEHI-3B tumor cells [1]; 10 μM): 34%
- activity at 20 µM (WEHI-3B tumor cells [1]; 20 μM): 13%
- activity at 40 µM (WEHI-3B tumor cells [1]; 40 μM): 2%
- effect on tumor growth (in words) (WEHI-3B tumor; 25 mg/Kg body weight per day, intramuscularly): delayed the onset of tumor growth and reduced the tumor growth significantly
- Tumor volume in cm^3 (WEHI-3B tumor; day 3 after implantation): 0.000 ± 0.000 cm^3
- Tumor volume in cm^3 (WEHI-3B tumor; day 15 after implantation): 0.000 ± 0.000 cm^3
- Tumor volume in cm^3 (WEHI-3B tumor; day 17 after implantation): 0.000 ± 0.000 cm^3
- Tumor volume in cm^3 (WEHI-3B tumor; day 20 after implantation): 0.036 ± 0.010 cm^3
- Tumor volume in cm^3 (WEHI-3B tumor; day 22 after implantation): 0.117 ± 0.017 cm^3
- Tumor volume in cm^3 (WEHI-3B tumor; day 24 after implantation): 0.172 ± 0.025 cm^3

SMILES: CCCCCCCCCCCCCCCCCCOCC(CCP(=O)([O-])OCC[N+](C)(C)C)OC (centres unmarked) [compound VI]
- activity at 1.25 µM (WEHI-3B tumor cells [2]; 24 h, Day 1): 95%
- activity at 2.5 µM (WEHI-3B tumor cells [2]; 24 h, Day 1): 72%
- activity at 5 µM (WEHI-3B tumor cells [2]; 24 h, Day 1): 34%
- activity at 10 µM (WEHI-3B tumor cells [2]; 24 h, Day 1): 18%
- activity at 20 µM (WEHI-3B tumor cells [2]; 24 h, Day 1): 8%
- activity at 40 µM (WEHI-3B tumor cells [2]; 24 h, Day 1): 3%
- activity at 1.25 µM (WEHI-3B tumor cells [2]; 48 h, Day 2): 84%
- activity at 2.5 µM (WEHI-3B tumor cells [2]; 48 h, Day 2): 67%
- activity at 5 µM (WEHI-3B tumor cells [2]; 48 h, Day 2): 22%
- activity at 10 µM (WEHI-3B tumor cells [2]; 48 h, Day 2): 13%
- activity at 20 µM (WEHI-3B tumor cells [2]; 48 h, Day 2): 2%
- activity at 40 µM (WEHI-3B tumor cells [2]; 48 h, Day 2): 2%
- activity at 1.25 µM (WEHI-3B tumor cells [2]; 72 h, Day 3): 77%
- activity at 2.5 µM (WEHI-3B tumor cells [2]; 72 h, Day 3): 54%
- activity at 5 µM (WEHI-3B tumor cells [2]; 72 h, Day 3): 12%
- activity at 10 µM (WEHI-3B tumor cells [2]; 72 h, Day 3): 10%
- activity at 20 µM (WEHI-3B tumor cells [2]; 72 h, Day 3): 1%
- activity at 40 µM (WEHI-3B tumor cells [2]; 72 h, Day 3): 2%
- activity at 2.5 µM (C-41 tumor cells; C4-1, 2.5 μM): 88%
- activity at 5 µM (C-41 tumor cells; C4-1, 5 μM): 63%
- activity at 10 µM (C-41 tumor cells; C4-1, 10 μM): 42%
- activity at 20 µM (C-41 tumor cells; C4-1, 20 μM): 41%
- activity at 40 µM (C-41 tumor cells; C4-1, 40 μM): 16%
- Tumor volume (mm^3) ([3]; day 0 after tumor injection): 0 mm^3
- Tumor volume (mm^3) ([3]; day 7 after tumor injection): 0 mm^3
- Tumor volume (mm^3) ([3]; day 10 after tumor injection): 0 mm^3
- Tumor volume (mm^3) ([3]; day 17 after tumor injection): 100 mm^3
- Tumor volume (mm^3) ([3]; day 18 after tumor injection): 175 mm^3
- Tumor volume (mm^3) ([3]; day 20 after tumor injection): 252 mm^3
- Tumor volume (mm^3) ([3]; day 22 after tumor injection): 500 mm^3
- retardation of tumor growth ([3]; versus untreated animals, 50 mg/day orally once a day): approximately 6 days
